System: severe traumatic brain injury (sTBI)
Experiment: sTBI in rats, brain gene expression arrays and pathway analysis (Example 9)
Format: in vivo, Male Wistar rats
Set-up: key to z score, canonical pathway Dendritic Cell Maturation / z score, canonical pathway Adrenomedullin Signaling pathway / z score, canonical pathway Endothelin-1 Signaling / effect on canonical pathway Adrenomedullin Signaling pathway / effect on canonical pathway Endothelin-1 Signaling / effect on canonical pathway Dendritic Cell Maturation / Ingenuity canonical pathway Adrenomedullin signaling pathway, z score / Ingenuity canonical pathway FLT3 Signaling in Hematopoietic Progenitor Cells, z score / Ingenuity canonical pathway Opioid Signaling Pathway, z score / Ingenuity canonical pathway VDR/RXR Activation, z score / Ingenuity canonical pathway Neuropathic Pain Signaling In Dorsal Horn Neurons, z score / Ingenuity canonical pathway STAT3 Pathway, z score / Ingenuity canonical pathway IL-1 Signaling, z score / Ingenuity canonical pathway IL-6 Signaling, z score / Ingenuity canonical pathway NF-κB Signaling, z score / Ingenuity canonical pathway Role of NFAT in Cardiac Hypertrophy, z score / Ingenuity canonical pathway PPARα/RXRα Activation, z score: *: ambiguous effect
Experimental: The experimental protocol used in this study was approved by the Ethical Committee of the Catholic University of Rome, according to international standards and guidelines for animal care. Male Wistar rats of 300-350 g body weight were fed with standard laboratory diet and water ad libitum in a controlled environment. As the anesthetic mixture, the animals received 35 mg/kg b.w. ketamine and 0.25 mg/kg body weight midazolam by i.p. injection. Severe traumatic brain injury (sTBI) was induced by dropping a 450 g weight from 2 m height on to the rat head that had been protected by a metal disk previously fixed on the skull, according to the “weight drop” impact acceleration model (Marmarou et al., A new model of diffuse brain injury in rats. Part I: Pathophysiology and biomechanics. J Neurosurg. 1994; 80: 291-300). […] At the end of each period of treatment, rats were anesthetized again and then immediately sacrificed.
LMW-DS (Tikomed AB) was provided at a stock concentration of 20 mg/ml and was kept in a temperature-monitored refrigerator at 4° C. LMW-DS aliquots were diluted to the appropriate dosing concentration in sterile saline prior to delivery of a single subcutaneous injection.
Three doses of LMW-DS were administered subcutaneously 30 minutes post-TBI. The animals were sacrificed at 2 days post-TBI. The animals were divided into the following subgroups:
Three doses of LMW-DS were administered subcutaneously 30 minutes post-TBI. The animals were sacrificed at 7 days post-TBI. The animals were divided into the following subgroups:
An in vivo craniectomy was performed on all animals during anesthesia. After carefully removing the rat's skull, the brain was exposed and removed with a surgical spatula and quickly dropped in RNALater and preserved at 4° C. for further processing.
RNA extraction and array processing was carried out by SourceBioscience. The arrays used were the Agilent Rat expression arrays.
Statistical analysis was carried out using the Metaboanalyst software package. Gene expression changes of 10% with a p<0.05 were regarded as significant.
Pathway analysis of the differentially regulated genes was carried out using the Ingenuity pathway analysis package. The analysis was performed with special reference to pathways and molecular processes and diseases associated with neurodegenerative disease, including dementia, Alzheimer's disease, ALS, TBI and stroke, and with scarring and fibrosis, including glaucoma and normal pressure hydrocephalus (NPH) after subarachnoid haemorrhage.

[1] = TBI + 5 mg/kg LMW-DS, after 7 days, TBI: Inhibited
[2] = TBI + 15 mg/kg LMW-DS, 2 days after TBI
[3] = TBI + 15 mg/kg LMW-DS, 7 days after TBI
[4] = TBI + 15 mg/kg LMW-DS, 7 days after TBI, relative to control
[5] = TBI + 15 mg/kg LMW-DS, after 7 days, TBI: Activated
[6] = TBI + 15 mg/kg LMW-DS, after 7 days, TBI: Inhibited
[7] = TBI + 15 mg/kg repeat dose LMW-DS, after 7 days, TBI: Activated
[8] = TBI + 15 mg/kg repeat dose LMW-DS, after 7 days, TBI: Inhibited

With “low molecular weight dextran sulfate [LMW-DS]” the “Diseases or functions annotation: Organization of cytoskeleton” value [1] was “Activated”, the “Diseases or functions annotation: Pelvic tumor” value [1] was “Activated” and the “Diseases or functions annotation: Proliferation of connective tissue cells” value [1] was “Inhibited”. The “Diseases or functions annotation: Proliferation of epithelial cells” value [1] was “Inhibited”, the “Diseases or functions annotation: Quantity of cells” value [1] was “Activated” and the “Diseases or functions annotation: Quantity of connective tissue” value [1] was “Activated”. The “Diseases or functions annotation: Secretion of molecule” value [1] was “Activated”, the “Diseases or functions annotation: Size of body” value [1] was “Activated” and the “Diseases or functions annotation: Solid tumor” value [1] was “Activated”. The “Diseases or functions annotation: Synthesis of lipid” value [1] was “Activated”, the “Diseases or functions annotation: Transcription” value [1] was “Activated” and the “Diseases or functions annotation: Transcription of RNA” value [1] was “Activated”. For the same substance, the “Diseases or functions annotation: Transport of molecule” value [1] was “Activated”, the “Diseases or functions annotation: Tumorigenesis of tissue” value [1] was “Inhibited” and the “Diseases or functions annotation: Vasculogenesis” value [1] was “Activated”. For the same substance, the “Diseases or functions annotation: Apoptosis” value [2] was “Inhibited”, the “Diseases or functions annotation: Apoptosis of tumor cell lines” value [2] was “Activated” and the “Diseases or functions annotation: Behavior” value [2] was “Inhibited”. The “Diseases or functions annotation: Cell death” value [2] was “Inhibited”, the “Diseases or functions annotation: Necrosis” value [2] was “Inhibited” and the “Diseases or functions annotation: Quantity of blood cells” value [2] was “Inhibited”. For the same substance, the “Diseases or functions annotation: Quantity of cells” value [2] was “Inhibited”, the “Diseases or functions annotation: Quantity of lymphocytes” value [2] was “Inhibited” and the “Ingenuity canonical pathway: Endothelin-1 Signaling” value [3] was “Activated”. The “Ingenuity canonical pathway: Phospholipase C Signaling” value [3] was “Activated”, the “Ingenuity canonical pathway: cAMP-mediated signaling” value [3] was “Activated” and the “z score: Abdominal neoplasm” value [3] was −0.272. For the same substance, the “z score: Apoptosis” value [3] was −0.256, the “z score: Apoptosis of tumor cell lines” value [3] was 0.783 and the “z score: Cancer” value [3] was 1.705. For the same substance, the “z score: Carcinoma” value [3] was 1.067, the “z score: Cell death” value [3] was −1.269 and the “z score: Cell death of tumor cell lines” value [3] was 0.178. The “z score: Cell movement of myeloid cells” value [3] was 1.197, the “z score: Development of connective tissue cells” value [3] was 0.766 and the “z score: Development of malignant tumor” value [3] was −0.774. For the same substance, the “z score: Differentiation of bone cells” value [3] was 0.903, the “z score: Epithelial neoplasm” value [3] was 0.775 and the “z score: Extracranial solid tumor” value [3] was 1.474. The “z score: Frequency of tumor” value [3] was −1.519, the “z score: Genitourinary tumor” value [3] was 1.746 and the “z score: Incidence of tumor” value [3] was −0.865. The “z score: Leukocyte migration” value [3] was 2.365, the “z score: Necrosis” value [3] was 0.213 and the “z score: Non-melanoma solid tumor” value [3] was 1.121. For the same substance, the “z score: Quantity of Ca^2+” value [3] was 0.224, the “z score: Quantity of cells” value [3] was 0.991 and the “z score: Solid tumor” value [3] was 0.992. The “z score: Transcription” value [3] was 0.747, the “z score: Transcription of RNA” value [3] was 0.517 and the “z score: Tumorigenesis of epithelial neoplasm” value [3] was 0.152. The “z score: Tumorigenesis of tissue” value [3] was 0.918, the “Ingenuity canonical pathway Adrenomedullin signaling pathway, z score” value [4] was “*” and the “Ingenuity canonical pathway Endothelin-1 Signaling, z score” value [4] was 1. For the same substance, the “Ingenuity canonical pathway Phospholipase C Signaling, z score” value [4] was 2, the “Ingenuity canonical pathway cAMP-mediated signaling, z score” value [4] was 1 and the “Diseases or functions annotation: Apoptosis” value [5] was “Inhibited”. For the same substance, the “Diseases or functions annotation: Apoptosis of tumor cell lines” value [5] was “Activated”, the “Diseases or functions annotation: Cell death” value [5] was “Inhibited” and the “Diseases or functions annotation: Cell death of tumor cell lines” value [5] was “Activated”. The “Diseases or functions annotation: Development of malignant tumor” value [5] was “Inhibited”, the “Diseases or functions annotation: Extracranial solid tumor” value [5] was “Activated” and the “Diseases or functions annotation: Frequency of tumor” value [5] was “Inhibited”. The “Diseases or functions annotation: Incidence of tumor” value [5] was “Inhibited”, the “Diseases or functions annotation: Necrosis” value [5] was “Activated” and the “Diseases or functions annotation: Abdominal neoplasm” value [6] was “Inhibited”. The “Diseases or functions annotation: Cancer” value [6] was “Activated”, the “Diseases or functions annotation: Carcinoma” value [6] was “Activated” and the “Diseases or functions annotation: Cell movement of myeloid cells” value [6] was “Activated”. For the same substance, the “Diseases or functions annotation: Development of carcinoma” value [6] was “Activated”, the “Diseases or functions annotation: Development of connective tissue cells” value [6] was “Activated” and the “Diseases or functions annotation: Differentiation of bone cells” value [6] was “Activated”. The “Diseases or functions annotation: Epithelial neoplasm” value [6] was “Activated”, the “Diseases or functions annotation: Genitourinary tumor” value [6] was “Activated” and the “Diseases or functions annotation: Leukocyte migration” value [6] was “Activated”. The “Diseases or functions annotation: Non-melanoma solid tumor” value [6] was “Activated”, the “Diseases or functions annotation: Quantity of cells” value [6] was “Activated” and the “Diseases or functions annotation: Solid tumor” value [6] was “Activated”. For the same substance, the “Diseases or functions annotation: Transcription” value [6] was “Activated”, the “Diseases or functions annotation: Transcription of RNA” value [6] was “Activated” and the “Diseases or functions annotation: Tumorigenesis of epithelial neoplasm” value [6] was “Activated”. For the same substance, the “Diseases or functions annotation: Tumorigenesis of tissue” value [6] was “Activated”, the “Diseases or functions annotation: Digestive organ tumor” value [7] was “Inhibited” and the “Diseases or functions annotation: Extracranial solid tumor” value [7] was “Activated”. The “Diseases or functions annotation: Gastrointestinal tumor” value [7] was “Inhibited”, the “Diseases or functions annotation: Hematologic cancer” value [7] was “Inhibited” and the “Diseases or functions annotation: Hematopoietic neoplasm” value [7] was “Inhibited”. The “Diseases or functions annotation: Obesity” value [7] was “Activated”, the “Diseases or functions annotation: Seizure disorder” value [7] was “Activated” and the “Diseases or functions annotation: Skin lesion” value [7] was “Activated”. For the same substance, the “Diseases or functions annotation: Abdominal cancer” value [8] was “Inhibited”, the “Diseases or functions annotation: Abdominal neoplasm” value [8] was “Inhibited” and the “Diseases or functions annotation: Adenocarcinoma” value [8] was “Inhibited”. The “Diseases or functions annotation: Branching of cells” value [8] was “Activated”, the “Diseases or functions annotation: Carcinoma” value [8] was “Inhibited” and the “Diseases or functions annotation: Cell movement” value [8] was “Activated”. The “Diseases or functions annotation: Cell-cell contact” value [8] was “Activated”, the “Diseases or functions annotation: Concentration of hormone” value [8] was “Activated” and the “Diseases or functions annotation: Concentration of lipid” value [8] was “Inhibited”. The “Diseases or functions annotation: Dendritic growth/branching” value [8] was “Inhibited”, the “Diseases or functions annotation: Development of connective tissue cells” value [8] was “Inhibited” and the “Diseases or functions annotation: Development of gap junctions” value [8] was “Activated”. For the same substance, the “Diseases or functions annotation: Development of neurons” value [8] was “Activated” and the “Diseases or functions annotation: Developmental process of synapse” value [8] was “Activated”.
